{"source": "patent US20250122155A1", "about": "“NOVEL INDOLE DERIVATIVE, PHARMACEUTICAL COMPOSITION COMPRISING SAME, AND USE THEREOF” (MITOIMMUNE THERAPEUTICS INC., priority 2021, published 2025)", "key": {"[1]": {"experiment": "Plasma and brain drug concentration after oral administration (HPLC-MS/MS)", "type": "in vivo", "settings": "for drug concentration in brain / drug concentration in plasma / concentration at 2 h / concentration at 24 h / concentration at 0.5 h / concentration at 1 h / concentration at 4 h / concentration at 8 h / AUC(0-t): 10 mg/kg; for AUC(0-inf): read-out: area under the plasma concentration v. time curve (AUCinf); for concentration at 2 h / concentration at 24 h / concentration at 0.5 h / concentration at 1 h / concentration at 4 h / concentration at 8 h / AUC(0-t): ICR, mouse, po", "method": "[…] parameters can be represented as maximum concentration in plasma (Cmax), time taken until maximum concentration in plasma (Tmax), area under the plasma concentration-time curve (AUClast and AUCinf), and half-life (t1/2), and the like.\nThe compound of Example 2 was orally administered to ICR mice at a dose of 10 mg/kg, and drug concentration in mouse plasma was measured using HPLC-MS/MS spectroscopy at 0.5, 1, 2, 4, 8 and 24 hours. The mouse brains were removed at 2 or 24 hours, and drug concentration in the brain was measured using HPLC-MS/MS spectroscopy. The area under the plasma concentration v. time curve (AUCinf) was measured to be […], and at 2 hours after administration drug concentration in plasma was 398 ng/mL and brain drug concentration was measured at 683 ng/mL. […] Further, at 24 hours after administration, for Example 2, drug concentration in plasma was measured to be 5.6 ng/mL and drug concentration in the brain was measured at 11.4 ng/mL. With the brain-plasma drug concentration ratio at 2.04, drug exposure in the brain was still high.\nThe Comparative Example compound was orally administered to ICR mice at a dose of 10 mg/kg, and drug concentration in mouse plasma was measured using HPLC-MS/MS spectroscopy at 0.5, 1, 2, 4, 8 and 24 hours. The mouse brains were removed at 2 or 24 hours, and drug concentration in the brain was measured using HPLC-MS/MS spectroscopy."}, "H9C2 cells [2]": {"system": "H9C2 cells", "experiment": "Protective effect on heart cells against t-BHP (LDH release)", "type": "cell-based", "settings": "H9C2, t-BHP 400 μM, 2 hours, read-out: EC50 (μM), Cell Protection Effect against t-BHP in Heart Cells", "method": "In order to identify the protective effect with regard to heart cells, H9C2 cells were divided into 96-well plates by 1.5×10^4, and cultured for 24 hours. The respective wells were treated with compounds of the examples 3× serial diluted to final concentrations of 30, 10, 3, 1, 0.3, 0.1, 0.03 and 0.01 μM, then incubated for 15 to 20 minutes. After treating with t-BHP with a final concentration of 400 μM, incubation was performed for 2 hours. To confirm the protective effect of each compound, a Cytotoxicity LDH assay kit [Dojindo; CK12] was used to measure the degree of extracellular secretion of LDH. After 2-hour treatment of the cells with t-BHP was completed, 100 μL each of the supernatant in which the cells were placed was collected and moved to a new 96-well plate. 100 μL/well of the assay buffer included in the kit (same amount as the sample) was added, followed by wrapping with foil and reacting for 30 minutes at room temperature. Observing the change of color in the sample, 50 μL/well of stop solution was added, then an iD3 spectrometer was used to measure absorbance at 490 nm and calculate the EC50 values. The EC50 of the compounds of the examples is preferably no more than 1.0 μM, and more preferably no more than 0.3 μM."}, "H9C2 cells [3]": {"system": "H9C2 cells", "experiment": "Maintenance of intracellular calcium level in heart cells treated with t-BHP (FLIPR Calcium 6)", "type": "cell-based, rat", "settings": "H9C2, t-BHP 150 μM", "method": "To examine the maintenance effect on calcium level in heart cells, H9C2 cells were divided into a 96-well plate at 1.5×10^4 cells/well and cultured for 24 hours. To measure intracellular calcium level, a FLIPR Calcium 6 assay kit (Molecular devices; #R8190) was used. Following the experimental method provided by the manufacturer, cells were treated with probenecid and calcium-sensitive dye for 1.75 hours, and then the cells were treated with the compound of Example 2 for 0.25 hours (the final concentration of the compound was 0.02 or 0.01 μM). And the cells were treated with t-BHP to a final concentration of 150 μM, then intracellular calcium level was measured every 30 seconds in real time.\nFIG. 1 is a graph regarding the regulatory effect of the compound of Example 2 on calcium level under t-BHP treatment. The ΔF/F(Max−Min) value on the vertical axis is the difference between the maximum and minimum fluorescence intensity values of the calcium-sensitive dye after treatment with t-BHP (150 μM), and this value increases as intracellular calcium level increases."}, "[4]": {"settings": "ICR mouse, oral 10 mg/kg, 24 hr"}, "[5]": {"settings": "ICR mouse, oral 10 mg/kg, plasma"}, "[6]": {"settings": "brain, 2 hr, read-out: drug concentration in brain"}, "[7]": {"settings": "brain, 24 hr, read-out: drug concentration in brain"}, "[8]": {"settings": "plasma, 2 hr, read-out: drug concentration in plasma"}, "[9]": {"settings": "plasma, 24 hr, read-out: drug concentration in plasma"}, "[10]": {"settings": "plasma, plasma, read-out: area under the plasma concentration v. time curve (AUClast)"}, "[11]": {"settings": "plasma, read-out: AUClast, plasma"}, "[12]": {"settings": "brain/plasma, ICR mouse, oral 10 mg/kg, 2 hr, read-out: brain-plasma drug concentration ratio (B/P ratio)"}}, "note": "Where two headings read alike, the source gives them in different places.", "data": [{"compound": "OCc1cc(NC2CCCC2)c2[nH]c(-c3ccccc3)cc2c1", "note": "[Comparative Example, reference compound]", "values": [{"measurement": "drug concentration in brain", "setting": "[1]; ICR mouse, oral 10 mg/kg, 2 hr", "result": 95, "unit": "ng/mL"}, {"measurement": "drug concentration in plasma", "setting": "[1]; ICR mouse, oral 10 mg/kg, 2 hr", "result": 1122, "unit": "ng/mL"}, {"measurement": "drug concentration in brain", "setting": "[1]; [4]", "result": "no drug concentration was measured"}, {"measurement": "drug concentration in plasma", "setting": "[1]; [4]", "result": "no drug concentration was measured"}, {"measurement": "AUC(0-inf)", "setting": "[1]; [5]", "result": 5460, "unit": "ng·h/mL"}, {"measurement": "concentration at 2 h", "setting": "[1]; [6]", "result": 95, "unit": "ng/mL"}, {"measurement": "concentration at 24 h", "setting": "[1]; [7]", "result": 0, "unit": "ng/mL"}, {"measurement": "concentration at 0.5 h", "setting": "[1]; plasma", "result": 1640, "unit": "ng/mL"}, {"measurement": "concentration at 1 h", "setting": "[1]; plasma", "result": 2110, "unit": "ng/mL"}, {"measurement": "concentration at 2 h", "setting": "[1]; [8]", "result": 1120, "unit": "ng/mL"}, {"measurement": "concentration at 4 h", "setting": "[1]; plasma", "result": 389, "unit": "ng/mL"}, {"measurement": "concentration at 8 h", "setting": "[1]; plasma", "result": 50.8, "unit": "ng/mL"}, {"measurement": "concentration at 24 h", "setting": "[1]; [9]", "result": 0, "unit": "ng/mL"}, {"measurement": "AUC(0-t)", "setting": "[1]; [10]", "result": 5360, "unit": "ng·h/mL"}, {"measurement": "AUC(0-t)", "setting": "[1]; [11]", "result": 5360, "unit": "ng·h/mL"}, {"measurement": "Kp at 2 h", "setting": "[1]; [12]", "result": 0.08}]}, {"compound": "COCCOCc1cc(NC2CCCC2)c2[nH]c(-c3ccccc3)cc2c1", "note": "[Example 2, N-cyclopentyl-5-(2-methoxyethoxymethyl)-2-phenyl-1H-indol-7-amine]", "values": [{"measurement": "EC50", "setting": "H9C2 cells [2]", "result": "≤ 0.3", "unit": "µM"}, {"measurement": "AUClast, brain", "setting": "[1]; ICR mouse, oral 10 mg/kg", "result": 8319.0, "unit": "ng·h/g"}, {"measurement": "drug concentration in brain", "setting": "[1]; ICR mouse, oral 10 mg/kg, 2 hr", "result": 682.8, "unit": "ng/mL"}, {"measurement": "drug concentration in plasma", "setting": "[1]; ICR mouse, oral 10 mg/kg, 2 hr", "result": 398.2, "unit": "ng/mL"}, {"measurement": "AUC(0-inf)", "setting": "[1]; [5]", "result": 5420, "unit": "ng·h/mL"}, {"measurement": "concentration at 2 h", "setting": "[1]; [6]", "result": 683, "unit": "ng/mL"}, {"measurement": "concentration at 24 h", "setting": "[1]; [7]", "result": 11.4, "unit": "ng/mL"}, {"measurement": "concentration at 0.5 h", "setting": "[1]; plasma", "result": 334, "unit": "ng/mL"}, {"measurement": "concentration at 1 h", "setting": "[1]; plasma", "result": 337, "unit": "ng/mL"}, {"measurement": "concentration at 2 h", "setting": "[1]; [8]", "result": 398, "unit": "ng/mL"}, {"measurement": "concentration at 4 h", "setting": "[1]; plasma", "result": 672, "unit": "ng/mL"}, {"measurement": "concentration at 8 h", "setting": "[1]; plasma", "result": 232, "unit": "ng/mL"}, {"measurement": "concentration at 24 h", "setting": "[1]; [9]", "result": 5.6, "unit": "ng/mL"}, {"measurement": "AUC(0-t)", "setting": "[1]; [10]", "result": 5400, "unit": "ng·h/mL"}, {"measurement": "AUC(0-t)", "setting": "[1]; [11]", "result": 5400, "unit": "ng·h/mL"}, {"measurement": "Kp at 2 h", "setting": "[1]; [12]", "result": 1.71}, {"measurement": "Kp at 24 h", "setting": "[1]; brain/plasma, ICR mouse, oral 10 mg/kg, 24 hr, read-out: brain-plasma drug concentration ratio (B/P ratio)", "result": 2.04}, {"measurement": "Kp", "setting": "[1]; brain/plasma, ICR mouse, oral 10 mg/kg, read-out: B/P ratio of AUClast", "result": 1.74}, {"measurement": "intracellular calcium level, ΔF/F(Max−Min)", "setting": "H9C2 cells [3]; compound 0.01 μM", "result": "significantly decreased"}, {"measurement": "intracellular calcium level, ΔF/F(Max−Min)", "setting": "H9C2 cells [3]; compound 0.02 μM", "result": "within normal range"}]}, {"compound": "COCCCNc1cc(COCCOC)cc2cc(-c3ccccc3)[nH]c12", "note": "[Example 47, 5-(2-methoxyethoxymethyl)-N-(3-methoxypropyl)-2-phenyl-1H-indol-7-amine]", "values": [{"measurement": "EC50", "setting": "H9C2 cells [2]", "result": "≤ 0.3", "unit": "µM"}]}, {"compound": "COCCOCc1cc(NC2CCC(C)(O)CC2)c2[nH]c(-c3ccccc3)cc2c1", "note": "(single isomer, unassigned) [Example 70-1, 4-((5-((2-methoxyethoxy)methyl)-2-phenyl-1H-indol-7-yl)amino)-1-methylcyclohexane-1-ol]", "values": [{"measurement": "EC50", "setting": "H9C2 cells [2]", "result": "≤ 0.3", "unit": "µM"}]}, {"compound": "COCCOCc1cc(NCc2ccccc2)c2[nH]c(-c3ccccc3)cc2c1", "note": "[Example 28, N-benzyl-5-(2-methoxyethoxymethyl)-2-phenyl-1H-indol-7-amine]", "values": [{"measurement": "EC50", "setting": "H9C2 cells [2]", "result": "≤ 0.3", "unit": "µM"}]}, {"compound": "COCCOCc1cc(NC2CCOC2)c2[nH]c(-c3ccccc3)cc2c1", "note": "(centres unmarked) [Example 6, 5-(2-methoxyethoxymethyl)-2-phenyl-N-tetrahydrofuran-3-yl-1H-indol-7-amine]", "values": [{"measurement": "EC50", "setting": "H9C2 cells [2]", "result": "≤ 0.3", "unit": "µM"}]}, {"compound": "COCCOCc1cc(NC2CCC(O)CC2)c2[nH]c(-c3ccccc3)cc2c1", "note": "(single isomer, unassigned) [Example 69-2, 4-((5-((2-methoxyethoxy)methyl)-2-phenyl-1H-indol-7-yl)amino)cyclohexan-1-ol]", "values": [{"measurement": "EC50", "setting": "H9C2 cells [2]", "result": "≤ 0.3", "unit": "µM"}]}]}
